Assay results taken from PubChem BioAssay AID179 (DTP/NCI, 2004).
Calls of active or inactive are those of the source.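 The calls were made as follows: active = compounds giving half or more protection of infected cells from virus-caused growth loss, again on retest; inactive = the rest.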

Test system: CEM cells HIV-1 protection, formazan growth assay
Assay: NCI AIDS Antiviral Assay
Conditions: for IC50: measured here: growth of uninfected CEM cells
Outline: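 Five concentrations of each compound were applied to infected and uninfected human CEM cells. Protection from HIV-1 was judged from growth measured with a soluble formazan assay.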

Row | SMILES | EC50 [µM] | IC50 [µM] | outcome
1 | Cn1nc(-c2ccc(Cl)c(Cl)c2)nc2c(=O)n(C)c(=O)nc1-2 | > 200 | 3.8 | 
2 | CC1=C[C@@]2(C=C(C(=O)O)[C@@]34CCCC(C)(C)C3C[C@@H]2OC4)OC1=O (stereo not given in full) | > 380 | > 380 | 
3 | CCCN(CCc1ccc(-c2ccccc2)cc1)CCc1ccc2n[nH]nc2c1 | > 200 | 10 | 
4 | C/C(CN1C(=O)c2ccccc2C1=O)=N\NS(=O)(=O)c1ccc(F)cc1 | > 479 | > 479 | 
5 | Cc1cc(O)c(/C=N/C(=O)NN)c(=O)o1 | > 200 | > 200 | 
6 | C/C=C/C1(C)/C(=N\O)C(C)(CCC)C(=O)N1O (stereo not given) | 25.1 | 1050 | 
7 | O=C1CN(C2CCCCC2)CC(=O)N2C(c3ccccc3)CCCN12 (stereo not given) | > 200 | > 200 | 
8 | CCN(CC)C(=S)N/N=C/c1cc([N+](=O)[O-])ccc1O | > 200 | 3.63 | 
9 | O=C(O)/C(Cl)=C(\Cl)C(=O)Nc1ccc(Cl)c(Cl)c1Cl |  |  | inactive
10 | O=C1CNc2cc(N3CCOCC3)ccc2N1 | > 200 | 28.2 | 
11 | Cc1nc(NCCNCCO)nc2c1C(=O)Nc1ccccc1N2 | > 200 | 32.4 | 
12 | Clc1ccc(/C(=C/c2ccccc2)Cn2ccnc2)cc1 | > 200 | 35.5 | 
13 | C=Cc1nc(C#N)c(N)o1 |  |  | inactive
14 | Cc1ccc(S(=O)(=O)N2CCCCN(S(=O)(=O)c3ccc(C)cc3)Cc3ccccc3OCCOCCOc3c4cccc3Cc3cccc5c3OCCOCCOc3ccccc3CN(S(=O)(=O)c3ccc(C)cc3)CCCN(S(=O)(=O)c3ccc(C)cc3)Cc3ccccc3OCCOCCOc3c(cccc3C4)Cc3cccc(c3OCCOCCOc3ccccc3C2)C5)cc1 | > 100 | > 100 | 
15 | CCOc1ccc(N=Nc2ccc3oc(=O)c(C(=O)Nc4ccc(OC)cc4)cc3c2)cc1 | > 8.51 | > 8.51 | 
16 | Cc1cc(NS(=O)(=O)c2ccc(NC(=O)c3cccc4c(NNc5ccc(S(N)(=O)=O)cc5)c5ccccc5nc34)cc2)no1 | > 200 | 37.2 | 
17 | C[C@]12C(=O)OC[C@H](c3ccccc3)N1C(=O)N(Cc1ccccc1)[C@@H]2CO | > 200 | > 200 | 
18 | N#Cc1c(O)c(/C=N/c2ncccn2)c(=O)n2c1[nH]c1ccccc12 | > 200 | > 200 | 
19 | CC(=O)Nc1ccc(/C=N/Nc2nnc(N/N=C/c3ccc(NC(C)=O)cc3)c3ccccc23)cc1 | > 200 | 7.59 | 
20 | Cc1cn(C2CC(N=[N+]=[N-])C(COC(=O)CCCCCCCCCCCF)O2)c(=O)[nH]c1=O (stereo not given) | 0.162 | 2 | 
21 | NC(=O)c1nnsc1-c1ccco1 | > 200 | > 200 | 

Row | SMILES | EC50 [µM] | IC50 [µM] | outcome
22 | N#C/C(=C\c1ccc(O)c(O)c1)C(N)=O | > 25.1 | 10.5 | 
23 | CC1CC(c2ccc3ccccc3c2)NCCNC(c2ccc3ccccc3c2)CC(C)NCCN1 (stereo not given) | > 200 | 1.15 | 
24 | Nc1c(N=Nc2ccc(/C=C/c3ccc(N=Nc4cc(S(=O)(=O)O)c5cccnc5c4N)cc3S(=O)(=O)O)c(S(=O)(=O)O)c2)cc(S(=O)(=O)O)c2cccnc12 | > 4.68 | > 4.68 | 
25 | CCCCCCCCCCNP(=S)(NCCCCCCCCCC)c1ccccc1 |  |  | inactive
26 | O=C(Cn1c2ccc(Br)cc2c2nc3ccccc3nc21)NNC(=O)NC1CCCCC1 | > 200 | 182 | 
27 | Nc1nccc(Nc2ccc(S(N)(=O)=O)cc2)n1 | > 200 | 135 | 
28 | CCOC(=O)C(C1=C(O)c2ccccc2C(=O)C1=O)C1=C(O)c2ccccc2C(=O)C1=O | > 200 | 67.6 | 
29 | CC1(C)c2ccccc2C(C)(C)[N+]1(C)C | > 200 | 123 | 
30 | COc1ccc(/C=c2\c(=O)[nH]c3nc4ccccc4c(=O)n23)cc1 | > 200 | 34.7 | 
31 | C=C(C)[C@@H]1CC[C@]2(COC(=O)CC(C)CC(=O)O)CC[C@]3(C)[C@H](CC[C@@H]4[C@@]5(C)CC[C@H](OC(=O)CC(C)CC(=O)O)C(C)(C)[C@@H]5CC[C@]43C)[C@@H]12 (stereo not given in full) | > 200 | 19.1 | 
32 | COC(=O)c1c(-c2cc(OC)c(OC)c(OC)c2)oc2ccccc2c1=O | > 97.7 | 1.45 | 
33 | COC(=O)/C(C#N)=C/n1ccc(=O)[nH]c1=S | > 200 | > 200 | 
34 | CCOc1ccccc1NC(=O)/C(=N\NC(C)(C)C)C1C(=O)Nc2ccccc2S1=O (stereo not given) | > 112 | 17.8 | 
35 | NC1=NC(=O)C(c2ccccc2)S1 (stereo not given) | > 676 | > 676 | 
36 | COc1cccc2c1C(=O)c1c(O)c3c(c(O)c1C2=O)C[C@@](O)(C(=O)CO)C[C@@H]3OC1CC(N2CCOCC2C#N)C(O)C(C)O1 (stereo not given in full) | > 15.5 | 0.00501 | 
37 | CC12CC3(C)CC(C)(C1)CC(C(NC(C)(C)C)C(=O)O)(C2)C3 (stereo not given) |  |  | inactive
38 | CCOC(=O)c1c(Br)c(-c2ccc([N+](=O)[O-])cc2)c(Br)n1C | > 200 | 39.8 | 
39 | CC[P+](c1ccccc1)(N(C)C)N(C)C | > 200 | 112 | 
40 | COc1ccc(C=C(C(=O)c2ccccc2)C(=O)c2ccccc2)cc1 | > 20.9 | > 20.9 | 
41 | COC(=O)C(C(=O)C(=O)Nc1ccccc1C)c1nc2ccc([N+](=O)[O-])cc2[nH]c1=O (stereo not given) |  |  | inactive
42 | C[P+]1(C)CCc2c1ccc1ccccc21 |  |  | inactive

Row | SMILES | EC50 [µM] | IC50 [µM] | outcome
43 | CCOC(=O)/C(O)=C(\C=N\C(=S)Nc1ccc(Cl)c(Cl)c1)C(=O)OCC | > 200 | > 200 | 
44 | Oc1cc(O)c2c(c1)OC(c1ccc(O)c(O)c1)C(O)[C@H]2c1c(O)cc(O)c2c1OC(c1ccc(O)c(O)c1)C(O)C2 (stereo not given in full) | > 200 | 110 | 
45 | COC(=O)C(C(=O)C(=O)Nc1ccc([N+](=O)[O-])cc1)c1nc2ccc([N+](=O)[O-])cc2[nH]c1=O (stereo not given) | > 57.5 | > 57.5 | 
46 | Cc1ccc([N+](=O)[O-])cc1NC(=O)/C(=N/NC(=S)NN)C1SC(=S)NC1=O (stereo not given) | > 302 | > 302 | 
47 | CCC12CN(C(=O)OC)C3C(Br)C1CCC(=O)C32 (stereo not given) | > 200 | 178 | 
48 | C=CCc1c(C(O)CNC(C)C)ccc(OC)c1OCc1ccccc1 (stereo not given) | > 200 | 30.2 | 
49 | COC(=O)c1nc(=S)[nH]c(C(=O)OC)c1C(=O)/C=C/c1ccccc1 | > 191 | 120 | 
50 | NC(=O)c1ncn2c(=O)n(CCCl)nnc12 | > 1020 | 24.5 | 
51 | C[Si](C)(C)N1N=NC2C(=O)N(c3ccccc3)C(=O)C21 (stereo not given) | > 200 | > 200 | 
52 | C[P+](Cc1ccccc1)(c1ccccc1)c1ccccc1 | 0.0631 | 14.5 | 
53 | C[n+]1cn(C2=C([O-])c3ccccc3C(=O)/C2=N\S(=O)(=O)c2ccccc2)c2ccccc21 | > 151 | 126 | 
54 | CSC1=N/C(=C\c2ccco2)C(=O)N1CN1CCOCC1 | > 200 | 39.8 | 
55 | COC(=O)C1=C(C)NC(CF)=C(C(=O)OC)C1c1cccc2c(=O)c3ccccc3oc12 (stereo not given) | > 200 | 3.47 | 
56 | Cc1c(C)c2c(c(N)c1C#N)C(=O)N(Nc1ccccc1)C2=O | > 200 | 79.4 | 
57 | O=c1cc(NNc2cccc(F)c2)[nH]c(=S)[nH]1 | > 200 | 87.1 | 
58 | COc1cc2c(cc1OC)C(Cl)C(c1ccc(Cl)c(Cl)c1)=C2Cl (stereo not given) |  |  | inactive
59 | CCCCCC=C(c1cc(F)c(OC)c(C(=O)OC)c1)c1cc(F)c(OC)c(C(=O)OC)c1 | > 200 | 115 | 
60 | COC(=O)c1cc2ccccc2c2nc3ccccc3c(Cl)c12 | > 8.13 | > 8.13 | 
61 | C/C(CC(=O)Nc1ccc(NC(=O)C/C(C)=N\NC(N)=O)cc1)=N/NC(N)=O | > 240 | > 240 | 
62 | CN(C(=O)c1ccco1)C(=S)N1CCN(c2ccccc2)CC1 | > 110 | 30.2 | 
63 | c1ccc(CN2CCCCC(Sc3ccccc3)CC2)cc1 (stereo not given) | > 43.7 | 34.7 | 

Row | SMILES | EC50 [µM] | IC50 [µM] | outcome
64 | O=C(CN1CCCCC1)c1ccc2c(c1)Sc1ccccc1O2 | > 200 | 3.47 | 
65 | CCC(C)C(N)C(=O)NC(CC(N)=O)C(=O)NC(CC(C)C)C(=O)NC(CCCCN)C(=O)NC(C)C(=O)NC(CC(C)C)C(=O)NC(C)C(=O)NC(C)C(=O)NC(CC(C)C)C(=O)NC(C)C(=O)NC(CCCCN)C(=O)NC(CCCCN)C(=O)NC(C(=O)NC(CC(C)C)C(N)=O)C(C)CC (stereo not given) | 40.7 | 43.7 | 
66 | CC1CN=C(N(C(=O)Nc2ccccc2)C2CCCCC2)S1 (stereo not given) |  |  | inactive
67 | O=C1CNc2cc(N3CCCCC3)ccc2N1 | > 200 | 66.1 | 
68 | CN(C)CCNc1c2ccccc2nc2cccc([N+](=O)[O-])c12 | > 2 | 0.024 | 
69 | Cc1cc(N(CCC#N)CCC#N)ccc1/C=C(\NC(=O)/C=C/c1ccccc1)NC(=O)Nc1ccccc1C | > 9.77 | > 9.77 | 
70 | O=C1c2cccc3cc([N+](=O)[O-])cc(c23)C(=O)N1C(Cc1ccccc1)c1ccccc1 (stereo not given) | > 200 | 105 | 
71 | COc1cc(-c2nc3sc(-c4ccc(O)c(OC)c4)nc3s2)ccc1O | 83.2 | > 200 | 
72 | CC(C)C1CC(CO)(CNc2nc(N)nc(Cl)c2C=O)C1 (stereo not given) | > 200 | 1.78 | 
73 | Cc1ccccc1N=O | > 200 | 9.77 | 
74 | CCCC(=O)[O-].CCCC(=O)[O-].NCCN.NCCN.[Co+3].[O-][Cl+3]([O-])([O-])[O-] |  |  | inactive
75 | CN(C)c1ccc(C(=CC=C2c3ccccc3C(=O)c3ccccc32)c2ccc(N(C)C)cc2)cc1 | > 3.09 | > 3.09 | 
76 | CC(C)(C)SSCC(N)C(=O)O (stereo not given) | > 200 | > 200 | 
77 | Cc1ccc(C2OC(COCc3ccc(Cl)cc3)C(OCc3ccc(Cl)cc3)C2O)cc1 (stereo not given) |  |  | inactive
78 | CC(=O)OC12CCCCC1C1(CCCC1)NC2=O (stereo not given) |  |  | inactive
79 | CCc1c(O)n(Cc2ccccc2)c(=S)n(Cc2nc3ccccc3[nH]2)c1=O | > 200 | > 200 | 
80 | CCOC(=O)CCCc1cc[c]([Sb](=[O])([OH])[OH])cc1 | > 200 | 72.4 | 
81 | CCOC(=O)/C=C/CCO[Si](C)(C)C(C)(C)C | > 200 | > 200 | 
82 | Cc1sc2ccc3ccccc3c2[n+]1C | > 200 | 45.7 | 
83 | CC1CCCC(C(O)CC2CC(=O)NC(=O)C2)C1O (stereo not given) | > 200 | > 200 | 
